Measured values reported in patent US20220306647A1, “NOVEL INDOLE-2-CARBOXAMIDES ACTIVE AGAINST THE HEPATITUS B VIRUS (HBV)” (AICURIS GMBH & CO. KG, priority 2019, published 2022).

These molecules were tested against T1, HBV core protein (C-terminal truncated core protein, 149 amino acids of the N-terminal assembly domain, BODIPY-FL labelled) (UniProt P03146) (assay: Biochemical capsid assembly assay (fluorescence quenching)). Conditions: assembly started with NaCl, fluorescence read after 6 min, read-out: Assembly activity.
T1 construct: fused on or other part: A single cysteine added after residue 149, at position 150; It carries the BODIPY-FL maleimide label
Description: The screening for assembly effector activity was done based on a fluorescence quenching assay published by Zlotnick et al. (2007). The C-terminal truncated core protein containing 149 amino acids of the N-terminal assembly domain fused to a unique cysteine residue at position 150 and was expressed in E. coli using the pET expression system (Merck Chemicals, Darmstadt). Purification of core dimer protein was performed using a sequence of size exclusion chromatography steps. In brief, the cell pellet from 1 L BL21 (DE3) Rosetta2 culture expressing the coding sequence of core protein cloned NdeI/XhoI into expression plasmid pET21b was treated for 1 h on ice with a native lysis buffer (Qproteome Bacterial Protein Prep Kit; Qiagen, Hilden). After a centrifugation step the supernatant was precipitated during 2 h stirring on ice with 0.23 g/ml of solid ammonium sulfate. Following further centrifugation the resulting pellet was resolved in buffer A (100 mM Tris, pH 7.5; 100 mM NaCl; 2 mM DTT) and was subsequently loaded onto a buffer A equilibrated CaptoCore 700 column (GE HealthCare, Frankfurt). The column flow through containing the assembled HBV capsid was dialyzed against buffer N (50 mM NaHCO3 pH 9.6; 5 mM DTT) before urea was added to a final concentration of 3M to dissociate the capsid into core dimers for 1.5 h on ice. The protein solution was then loaded onto a 1L Sephacryl S300 column. After elution with buffer N core dimer containing fractions were identified by SDS-PAGE and subsequently pooled and dialyzed against 50 mM HEPES pH 7.5; 5 mM DTT. To improve the assembly capacity of the purified core dimers a second round of assembly and disassembly starting with the addition of 5 M NaCl and including the size exclusion chromatography steps described above was performed. From the last chromatography step core dimer containing fractions were pooled and stored in aliquots at concentrations between 1.5 to 2.0 mg/ml at −80° C.
Immediately before labelling the core protein was reduced by adding freshly prepared DTT in a final concentration of 20 mM. After 40 min incubation on ice storage buffer and DTT was removed using a Sephadex G-25 column (GE HealthCare, Frankfurt) and 50 mM HEPES, pH 7.5. For labelling 1.6 mg/ml core protein was incubated at 4° C. and darkness overnight with BODIPY-FL maleimide (Invitrogen, Karlsruhe) in a final concentration of 1 mM. After labelling the free dye was removed by an additional desalting step using a Sephadex G-25 column. Labelled core dimers were stored in aliquots at 4° C. In the dimeric state the fluorescence signal of the labelled core protein is high and is quenched during the assembly of the core dimers to high molecular capsid structures. The screening assay was performed in black 384 well microtiter plates in a total assay volume of 10 μl using 50 mM HEPES pH 7.5 and 1.0 to 2.0 μM labelled core protein. Each screening compound was added in 8 different concentrations using a 0.5 log-unit serial dilution starting at a final concentration of 100 μM, 31.6 μM or 10 μM, In any case the DMSO concentration over the entire microtiter plate was 0.5%. The assembly reaction was started by the injection of NaCl to a final concentration of […] which induces the assembly process to approximately 25% of the maximal quenched signal. 6 min after starting the reaction the fluorescence signal was measured using a Clariostar plate reader (BMG Labtech, Ortenberg) with an excitation of 477 nm and an emission of 525 nm. As 100% and 0% assembly control HEPES buffer containing 2.5 M and 0 M NaCl was used. Experiments were performed thrice in triplicates. EC50 values were calculated by non-linear regression analysis using the Graph Pad Prism 6 software (GraphPad Software, La Jolla, USA).

T1 sequence (P03146 whole entry, the tested form may be a part): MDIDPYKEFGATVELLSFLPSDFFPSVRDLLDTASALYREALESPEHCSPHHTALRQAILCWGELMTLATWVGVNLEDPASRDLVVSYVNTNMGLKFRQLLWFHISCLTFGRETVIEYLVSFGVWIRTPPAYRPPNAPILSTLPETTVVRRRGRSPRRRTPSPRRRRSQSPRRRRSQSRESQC

| Compound | IC50 [µM] |
| --- | --- |
| O=C(O)c1ccc(C2(NC(=O)c3cnn4c3CN(C(=O)c3cc5ccccc5[nH]3)CC4)CC2)nc1 [Example 19, 6-{1-[5-(1H-indole-2-carbonyl)-4H,5H,6H,7H-pyrazolo[1,5-a]pyrazine-3-amido]cyclopropyl}pyridine-3-carboxylic acid] | < 100 |
| O=C(O)c1cnc(C2(NC(=O)c3cnn4c3CN(C(=O)c3cc5ccccc5[nH]3)CC4)CC2)nc1 [Example 20, 2-{1-[5-(1H-indole-2-carbonyl)-4H,5H,6H,7H-pyrazolo[1,5-a]pyrazine-3-amido]cyclopropyl}pyrimidine-5-carboxylic acid] | < 5 |
| O=C(O)c1cnc(C2(NC(=O)c3cnn4c3CN(C(=O)c3cc5ccccc5[nH]3)CC4)CC2)nc1 [Example 29, 2-{1-[5-(1H-indole-2-carbonyl)-4H,5H,6H,7H-pyrazolo[1,5-a]pyrazine-3-amido]cyclopropyl}pyrimidine-5-carboxylic acid] | < 100 |
| O=C(O)c1cccc(C2(NC(=O)c3cnn4c3CN(C(=O)c3cc5ccccc5[nH]3)CC4)CC2)c1 [Example 32, 3-{1-[5-(1H-indole-2-carbonyl)-4H,5H,6H,7H-pyrazolo[1,5-a]pyrazine-3-amido]cyclopropyl}benzoic acid] | < 5 |
| CN(C(=O)c1cnn2c1CN(C(=O)c1cc3ccccc3[nH]1)CC2)C1(c2nccc(C(=O)O)n2)CC1 [Example 36, 2-{1-[N-methyl-5-(1H-indole-2-carbonyl)-4H,5H,6H,7H-pyrazolo[1,5-a]pyrazine-3-amido]cyclopropyl}pyrimidine-4-carboxylic acid] | < 5 |
| CN(C(=O)c1[nH]nc2c1CN(C(=O)c1cc3ccccc3[nH]1)CC2)C1(c2ccc(C(=O)O)cc2)CC1 [Example 44, 4-{1-[N-methyl-5-(1H-indole-2-carbonyl)-2H,4H,5H,6H,7H-pyrazolo[4,3-c]pyridine-3-amido]cyclopropyl}benzoic acid] | < 5 |
| CN(C(=O)c1[nH]nc2c1CN(C(=O)c1cc3ccccc3[nH]1)CC2)C1(c2ncc(C(=O)O)cn2)CC1 [Example 56, 2-{1-[N-methyl-5-(1H-indole-2-carbonyl)-2H,4H,5H,6H,7H-pyrazolo[4,3-c]pyridine-3-amido]cyclopropyl}pyrimidine-5-carboxylic acid] | 5 to 10 |
| CN(C(=O)c1cnn2c1CN(C(=O)c1cc3c(F)c(F)ccc3[nH]1)CC2)C1(c2ncc(C(=O)O)cn2)CC1 [Example 58, 2-{1-[N-methyl-5-(4,5-difluoro-1H-indole-2-carbonyl)-4H,5H,6H,7H-pyrazolo[1,5-a]pyrazine-3-amido]cyclopropyl}pyrimidine-5-carboxylic acid] | < 5 |
| Cc1c(F)ccc2[nH]c(C(=O)N3CCn4ncc(C(=O)N(C)C5(c6ncc(C(=O)O)cn6)CC5)c4C3)cc12 [Example 59, 2-{1-[N-methyl-5-(5-fluoro-4-methyl-1H-indole-2-carbonyl)-4H,5H,6H,7H-pyrazolo[1,5-a]pyrazine-3-amido]cyclopropyl}pyrimidine-5-carboxylic acid] | < 5 |
| CN(C(=O)c1[nH]nc2c1CN(C(=O)c1cc3c(F)c(F)ccc3[nH]1)CC2)C1(c2ccc(C(=O)O)cc2)CC1 [Example 65, 4-{1-[N-methyl-5-(4,5-difluoro-1H-indole-2-carbonyl)-2H,4H,5H,6H,7H-pyrazolo[4,3-c]pyridine-3-amido]cyclopropyl}benzoic acid] | < 5 |
| Cc1c(F)ccc2[nH]c(C(=O)N3CCc4n[nH]c(C(=O)N(C)C5(c6ccc(C(=O)O)cc6)CC5)c4C3)cc12 [Example 66, 4-{1-[N-methyl-5-(5-fluoro-4-methyl-1H-indole-2-carbonyl)-2H,4H,5H,6H,7H-pyrazolo[4,3-c]pyridine-3-amido]cyclopropyl}benzoic acid] | < 5 |
| Cc1cc(F)cc2[nH]c(C(=O)N3CCc4n[nH]c(C(=O)N(C)C5(c6ccc(C(=O)O)cc6)CC5)c4C3)cc12 [Example 67, 4-{1-[N-methyl-5-(6-fluoro-4-methyl-1H-indole-2-carbonyl)-2H,4H,5H,6H,7H-pyrazolo[4,3-c]pyridine-3-amido]cyclopropyl}benzoic acid] | < 5 |
| CN(C(=O)c1[nH]nc2c1CN(C(=O)c1cc3c(Cl)cccc3[nH]1)CC2)C1(c2ncc(C(=O)O)cn2)CC1 [Example 70, 2-{1-[N-methyl-5-(4-chloro-1H-indole-2-carbonyl)-2H,4H,5H,6H,7H-pyrazolo[4,3-c]pyridine-3-amido]cyclopropyl}pyrimidine-5-carboxylic acid] | < 5 |
| CN(C(=O)c1[nH]nc2c1CN(C(=O)c1cc3c(F)c(F)ccc3[nH]1)CC2)C1(c2ncc(C(=O)O)cn2)CC1 [Example 71, 2-{1-[N-methyl-5-(4,5-difluoro-1H-indole-2-carbonyl)-2H,4H,5H,6H,7H-pyrazolo[4,3-c]pyridine-3-amido]cyclopropyl}pyrimidine-5-carboxylic acid] | < 5 |
| Cc1c(F)ccc2[nH]c(C(=O)N3CCc4n[nH]c(C(=O)N(C)C5(c6ncc(C(=O)O)cn6)CC5)c4C3)cc12 [Example 72, 2-{1-[N-methyl-5-(5-fluoro-4-methyl-1H-indole-2-carbonyl)-2H,4H,5H,6H,7H-pyrazolo[4,3-c]pyridine-3-amido]cyclopropyl}pyrimidine-5-carboxylic acid] | < 5 |
| Cc1cc(F)cc2[nH]c(C(=O)N3CCc4n[nH]c(C(=O)N(C)C5(c6ncc(C(=O)O)cn6)CC5)c4C3)cc12 [Example 73, 2-{1-[N-methyl-5-(6-fluoro-4-methyl-1H-indole-2-carbonyl)-2H,4H,5H,6H,7H-pyrazolo[4,3-c]pyridine-3-amido]cyclopropyl}pyrimidine-5-carboxylic acid] | < 5 |
| CN(C(=O)c1cnn2c1CN(C(=O)c1cc3ccccc3[nH]1)CC2)C1(COc2ccc(C(=O)O)cc2Cl)CC1 [Example 101, 3-chloro-4-({1-[N-methyl-5-(1H-indole-2-carbonyl)-4H,5H,6H,7H-pyrazolo[1,5-a]pyrazine-3-amido]cyclopropyl}methoxy)benzoic acid] | < 5 |
| O=C(c1cc2ccccc2[nH]1)N1CCc2noc(C(=O)N3CCC(O)CC34CC4)c2C1 (stereo not shown) [Example 102, 4-[5-(1H-indole-2-carbonyl)-4H,5H,6H,7H-[1,2]oxazolo[4,3-c]pyridine-3-carbonyl]-4-azaspiro[2.5]octan-7-ol] | < 5 |
| C[C@@H](NC(=O)c1noc2c1CN(C(=O)c1cc3cc(F)c(F)cc3[nH]1)CC2)C(F)(F)F [Example 111, 5-(5,6-difluoro-1H-indole-2-carbonyl)-N-[(2R)-1,1,1-trifluoropropan-2-yl]-4H,5H,6H,7H-[1,2]oxazolo[4,5-c]pyridine-3-carboxamide] | < 5 |
| C[C@@H](NC(=O)c1noc2c1CN(C(=O)c1cc3c(F)cc(F)cc3[nH]1)CC2)C(F)(F)F [Example 112, 5-(4,6-difluoro-1H-indole-2-carbonyl)-N-[(2R)-1,1,1-trifluoropropan-2-yl]-4H,5H,6H,7H-[1,2]oxazolo[4,5-c]pyridine-3-carboxamide] | < 5 |
| C[C@@H](NC(=O)c1onc2c1CN(C(=O)c1cc3cc(F)c(F)cc3[nH]1)CC2)C(F)(F)F [Example 115, 5-(5,6-difluoro-1H-indole-2-carbonyl)-N-[(2R)-1,1,1-trifluoropropan-2-yl]-4H,5H,6H,7H-[1,2]oxazolo[4,3-c]pyridine-3-carboxamide] | < 5 |
| C[C@@H](NC(=O)c1onc2c1CN(C(=O)c1cc3c(Cl)cccc3[nH]1)CC2)C(F)(F)F [Example 118, 5-(4-chloro-1H-indole-2-carbonyl)-N-[(2R)-1,1,1-trifluoropropan-2-yl]-4H,5H,6H,7H-[1,2]oxazolo[4,3-c]pyridine-3-carboxamide] | < 5 |
